Assay results as given in patent US8076352B2, “Administration of carboline derivatives useful in the treatment of cancer and other diseases” (PTC Therapeutics, Inc., priority 2004, dated 2011).
pEC50: −log10 of the molar value.

system: hypoxia-inducible endogenous VEGF expression in HeLa cells; experiment: Hypoxia-inducible endogenous VEGF expression, VEGF ELISA of conditioned media (dose-response EC50); format: cell-based; conditions: Homo sapiens, HeLa cells under hypoxic conditions
Procedure, shortened: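 HeLa cells were cultured 24-48 h under hypoxia (1% O2, 5% CO2, balance N2) with or without compound. Conditioned-media VEGF protein was measured by ELISA against a standard curve. EC50 and CC50 come from percentage-inhibition curves over, e.g., seven concentrations, with maximal inhibition set at 100%.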

Compound | pEC50
O=C(Oc1ccc(Cl)cc1)N1CCc2c([nH]c3ccc(Cl)cc23)C1c1ccc(Cl)cc1 (centres unmarked) [Compound 351] | 7.40 to 8.10
Fc1ccccc1C1NCCc2c1[nH]c1ccc(Cl)cc21 (centres unmarked) [Compound 205] | 6.00 to 6.70
CCOC(=O)N1CCc2c([nH]c3ccc(F)cc23)C1c1ccc(OC)cc1 (centres unmarked) [Compound 191] | 6.00 to 6.70
CC(C)c1ccc(C2c3[nH]c4ccc(Cl)cc4c3CCN2C(=O)Oc2ccc(Cl)cc2)cc1 (centres unmarked) [Compound 348] | > 8.10
Fc1cccc(C2NCCc3c2[nH]c2ccc(Cl)cc32)c1 (centres unmarked) [Compound 203] | 6.00 to 6.70
COc1ccc(OC(=O)N2CCc3c([nH]c4ccc(Br)cc34)[C@@H]2c2ccc(Cl)cc2)cc1 [#332] | < 6.00
COCC(=O)N1CCc2c([nH]c3ccc(Br)cc23)C1c1ccccc1 (centres unmarked) [Compound 230] | < 6.00
CC(C)OC(=O)N1CCc2c([nH]c3ccc(Cl)cc23)C1c1cccc(C(F)(F)F)c1 (centres unmarked) [Compound 85] | 7.40 to 8.10
COc1ccc(C2c3[nH]c4ccccc4c3CCN2C(=O)NC2CCCCC2)cc1 (centres unmarked) [Compound 295] | < 6.00
COC(=O)N1CCc2c([nH]c3ccc(Cl)cc23)C1c1cccc(F)c1 (centres unmarked) [Compound 84] | 7.40 to 8.10
CCOC(=O)N1CCc2c([nH]c3ccc(Cl)cc23)C1c1cccc(OC)c1 (centres unmarked) [Compound 107] | 7.40 to 8.10
Fc1ccc2[nH]c3c(c2c1)CCNC3c1ccc(Cl)cc1 (centres unmarked) [Compound 254] | < 6.00
Clc1ccc2[nH]c3c(c2c1)CCN(c1ncccn1)C3c1ccc(OCCN2CCOCC2)cc1 (centres unmarked) [Compound 356] | 6.00 to 6.70
Cc1ccc2[nH]c3c(c2c1)CCN(C(=O)Oc1ccc(Cl)cc1)C3c1ccc(C(C)C)cc1 (centres unmarked) [Compound 344] | 7.40 to 8.10
CC(C)Oc1ccc(C2NCCc3c2[nH]c2ccc(Cl)cc32)cc1 (centres unmarked) [Compound 224] | 6.00 to 6.70
CCOC(=O)N1CCc2c([nH]c3ccc(Cl)cc23)C1c1ccc(C(C)C)cc1 (centres unmarked) [Compound 14] | > 8.10
COc1ccc(C2c3[nH]c4ccc(Cl)cc4c3CCN2C(=O)Cc2cccs2)cc1 (centres unmarked) [Compound 374] | 6.70 to 7.40
COC(=O)N1CCc2c([nH]c3ccc(Cl)cc23)C1c1ccc(C(C)C)cc1 (centres unmarked) [Compound 34] | > 8.10
CC(=O)N1CCc2c([nH]c3ccc(Br)cc23)C1c1ccc(C(C)C)cc1 (centres unmarked) [Compound 102] | 7.40 to 8.10
CS(=O)(=O)N1CCc2c([nH]c3ccc(Cl)cc23)C1c1ccc(OCc2ccccc2)cc1 (centres unmarked) [Compound 225] | 6.00 to 6.70
N#Cc1ccc(C2c3[nH]c4ccc(Cl)cc4c3CCN2C(=O)Oc2ccc(Cl)cc2)cc1 (centres unmarked) [Compound 350] | > 8.10
CC(C)OC(=O)N1CCc2c([nH]c3ccc(Cl)cc23)C1c1ccc(C#N)cc1 (centres unmarked) [Compound 45] | > 8.10

Compound | pEC50
Fc1ccc2[nH]c3c(c2c1)CCNC3c1ccc(Br)cc1 (centres unmarked) [Compound 256] | < 6.00
COc1ccc(C2c3[nH]c4ccc(Cl)cc4c3CCN2C(=O)Nc2cccc(F)c2)cc1 (centres unmarked) [Compound 160] | 6.70 to 7.40
Cc1cccc2c3c([nH]c12)C(c1ccccc1)NCC3 (centres unmarked) [Compound 326] | < 6.00
CCCCCC1c2[nH]c3ccc(Cl)cc3c2CCN1Cc1ccccc1 (centres unmarked) [Compound 208] | 6.00 to 6.70
Oc1ccccc1C1NCCc2c1[nH]c1ccc(Br)cc21 (centres unmarked) [Compound 378] | < 6.00
CCCOC(=O)N1CCc2c([nH]c3ccc(Cl)cc23)C1c1ccc(C)cc1 (centres unmarked) [Compound 42] | > 8.10
CCOC(=O)N1CCc2c([nH]c3ccc(Cl)cc23)C1c1cccc(O)c1 (centres unmarked) [Compound 165] | 6.70 to 7.40
Clc1ccc2[nH]c3c(c2c1)CCN(Cc1ccccc1)C3c1ccccn1 (centres unmarked) [Compound 275] | < 6.00
CCOC(=O)N1CCc2c([nH]c3ccc(Cl)cc23)C1c1ccc(C#N)cc1 (centres unmarked) [Compound 120] | 7.40 to 8.10
COc1ccc(C2c3[nH]c4ccc(Cl)cc4c3CCN2C(=O)CCCl)cc1 (centres unmarked) [Compound 367] | 7.40 to 8.10
Brc1ccc2[nH]c3c(c2c1)CCN(c1ncccn1)C3c1ccc(OCCN2CCOCC2)cc1 (centres unmarked) [Compound 357] | 6.70 to 7.40
CCOC(=O)N1CCc2c([nH]c3ccc(Br)cc23)C1c1ccc(C)cc1 (centres unmarked) [#8] | > 8.10
Clc1ccc2[nH]c3c(c2c1)CCNC3c1cccnc1 (centres unmarked) [Compound 319] | < 6.00
COCCOCC(=O)N1CCc2c([nH]c3ccc(Br)cc23)C1c1ccc(Cl)cc1 (centres unmarked) [Compound 238] | < 6.00
O=C(Oc1ccc(Cl)cc1)N1CCc2c([nH]c3ccc(Cl)cc23)C1c1ccc(OCCN2CCOCC2)cc1 (centres unmarked) [Compound 331] | < 6.00
CCS(=O)(=O)N1CCc2c([nH]c3ccc(Cl)cc23)C1c1ccc(OC)cc1 (centres unmarked) [Compound 189] | 6.00 to 6.70
CC(C)OC(=O)N1CCc2c([nH]c3ccc(Cl)cc23)C1c1ccc(Cl)cc1 (centres unmarked) [Compound 40] | > 8.10
CCOC(=O)N1CCc2c([nH]c3ccc(OCc4ccccc4)cc23)C1c1ccc(OC)cc1 (centres unmarked) [Compound 278] | < 6.00
Fc1cccc(C2NCCc3c2[nH]c2ccc(Cl)cc32)c1F (centres unmarked) [Compound 123] | 7.40 to 8.10
CC(C)c1ccc(C2c3[nH]c4ccc(Cl)cc4c3CCN2c2ncccn2)cc1 (centres unmarked) [Compound 352] | 7.40 to 8.10
COc1ccc(C2c3[nH]c4ccccc4c3CCN2C(=O)Nc2ccccc2)cc1 (centres unmarked) [Compound 302] | < 6.00

same assay, conditions: Homo sapiens, HeLa cells, hypoxic conditions (1% O2)

Compound | pEC50
C=CCOc1ccc(C2c3[nH]c4ccc(Cl)cc4c3CCN2C(=O)Oc2ccc(Cl)cc2)cc1 (centres unmarked) [Compound 400] | > 8.10
C=CCOc1ccc(C2c3[nH]c4ccc(Cl)cc4c3CCN2C(=O)OCCF)cc1 (centres unmarked) [Compound 399] | > 8.10
COCCOc1ccc(C2c3[nH]c4ccc(Cl)cc4c3CCN2C(=O)OC(C)C)cc1 (centres unmarked) [Compound 411] | > 8.10
CN1CCN(CCCCCCOc2ccc(C3c4[nH]c5ccc(Cl)cc5c4CCN3C(=O)Oc3ccc(Cl)cc3)cc2)CC1 (centres unmarked) [Compound 788] | 7.40 to 8.10
CCOC(=O)N1CCc2c([nH]c3ccc(Cl)cc23)C1c1ccc(S(=O)(=O)N2CCOCC2)cc1 (centres unmarked) [Compound 487] | 6.70 to 7.40
C=CCOc1ccc(C2c3[nH]c4ccc(Cl)cc4c3CCN2C(=O)Oc2ccc(OC)cc2)cc1 (centres unmarked) [Compound 432] | > 8.10
COC(=O)c1ccc(C2c3[nH]c4ccc(Br)cc4c3CCN2C(=O)Oc2ccc(Cl)cc2)cc1 (centres unmarked) [Compound 591] | > 8.10
O=C(Oc1ccccc1Cl)N1CCc2c([nH]c3ccc(Cl)cc23)C1c1ccc(C(F)(F)F)cc1 (centres unmarked) [Compound 594] | 6.70 to 7.40
CC(C)(C)OC(=O)N[C@@H](Cc1ccccc1)C(=O)Oc1ccc(C2c3[nH]c4ccc(Cl)cc4c3CCN2C(=O)OC(C)(C)C)cc1 (some centres unmarked) [Compound 451] | 7.40 to 8.10
O=C(Oc1ccc(F)cc1)N1CCc2c([nH]c3ccc(Cl)cc23)C1c1ccc(O)cc1 (centres unmarked) [Compound 575] | 6.00 to 6.70
O=C(Oc1ccc(Cl)cc1)N1CCc2c([nH]c3ccc(Cl)cc23)C1c1ccc(OCC(O)CO)cc1 (centres unmarked) [Compound 629] | > 8.10
COCCOc1ccc(C2c3[nH]c4ccc(Cl)cc4c3CCN2C(=O)OCC(C)C)cc1 (centres unmarked) [Compound 407] | > 8.10
CC(C)C(=O)Nc1ccc(C2c3[nH]c4ccc(Cl)cc4c3CCN2C(=O)Oc2ccc(Cl)cc2)cc1 (centres unmarked) [Compound 482] | 6.70 to 7.40
CCCC1c2[nH]c3ccc(Cl)cc3c2CCN1C(=O)OCC (centres unmarked) [Compound 510] | 6.70 to 7.40
O=C(Oc1ccc(Cl)cc1)N1CCc2c([nH]c3ccc(Cl)cc23)C1c1ccc(OCCCCCCn2ccnc2)cc1 (centres unmarked) [Compound 790] | > 8.10
COCCOCCOc1ccc(C2c3[nH]c4ccc(Cl)cc4c3CCN2C(=O)Oc2ccccc2Cl)cc1 (centres unmarked) [Compound 674] | 7.40 to 8.10
CCOC(=O)N1CCc2c([nH]c3ccc(Br)cc23)C1c1ccc(C(F)(F)F)cc1 (centres unmarked) [Compound 434] | > 8.10
CC(C)(C)OC(=O)N1CCCC1C(=O)Oc1ccc(C2c3[nH]c4ccc(Cl)cc4c3CCN2C(=O)OC(C)(C)C)cc1 (centres unmarked) [Compound 424] | > 8.10
CCOC(=O)N1CCc2c([nH]c3ccc(Cl)cc23)C1C1CC=CCC1 (centres unmarked) [Compound 504] | 6.70 to 7.40
O=C(Oc1ccc(F)cc1)N1CCc2c([nH]c3ccc(Cl)cc23)C1c1ccc(OCC(O)CO)cc1 (centres unmarked) [Compound 627] | > 8.10
O=C(Oc1ccc(F)cc1)N1CCc2c([nH]c3ccc(Cl)cc23)C1c1ccc(OCCCCCCn2ccnc2)cc1 (centres unmarked) [Compound 780] | > 8.10
O=C(Oc1ccc(F)cc1)N1CCc2c([nH]c3ccc(Cl)cc23)C1c1ccc(OCCCCCCNCCO)cc1 (centres unmarked) [Compound 772] | > 8.10
COCCCNCCCCOc1ccc(C2c3[nH]c4ccc(Cl)cc4c3CCN2C(=O)Oc2ccc(Cl)cc2)cc1 (centres unmarked) [Compound 701] | 7.40 to 8.10

same assay, conditions: Homo sapiens, HeLa cells, hypoxic conditions (1% O2, 5% CO2)

Compound | pEC50
O=C(Oc1ccc(Cl)cc1)N1CCc2c([nH]c3ccc(Cl)cc23)C1c1ccc(OCC(O)CN2CCSCC2)cc1 (centres unmarked) [Compound 923] | > 8.10
O=C(Oc1ccccc1)N1CCc2c([nH]c3ccc(Cl)cc23)C1c1ccc(OCCCn2ccnc2)cc1 (centres unmarked) [Compound 911] | > 8.10
COCCN(C)CC(O)COc1ccc(C2c3[nH]c4ccc(Cl)cc4c3CCN2C(=O)Oc2ccc(Cl)cc2)cc1 (centres unmarked) [Compound 964] | 7.40 to 8.10
COCCN(CCCOc1ccc(C2c3[nH]c4ccc(Cl)cc4c3CCN2C(=O)Oc2ccc(Cl)cc2)cc1)CCOC (centres unmarked) [Compound 916] | > 8.10
O=C(Oc1ccc(Cl)cc1)N1CCc2c([nH]c3ccc(Cl)cc23)C1c1ccc(OCCn2ccnn2)cc1 (centres unmarked) [Compound 839] | 7.40 to 8.10
Cc1ccc(OC(=O)N2CCc3c([nH]c4ccc(Cl)cc34)C2c2ccc(OCCCn3ccnc3)cc2)cc1 (centres unmarked) [Compound 900] | > 8.10
O=C(Oc1ccc(F)cc1)N1CCc2c([nH]c3ccc(Cl)cc23)C1c1ccc(OCCCn2ccnc2)cc1 (centres unmarked) [Compound 889] | > 8.10
CN1CCCC(COc2ccc(C3c4[nH]c5ccc(Cl)cc5c4CCN3C(=O)Oc3ccc(Cl)cc3)cc2)C1 (centres unmarked) [Compound 966] | 7.40 to 8.10
O=C(Oc1ccc(F)cc1)N1CCc2c([nH]c3ccc(Cl)cc23)C1c1ccc(OCCCn2cncn2)cc1 (centres unmarked) [Compound 892] | > 8.10
COCCN(CCCOc1ccc(C2c3[nH]c4ccc(Cl)cc4c3CCN2C(=O)Oc2ccc(F)cc2)cc1)CCOC (centres unmarked) [Compound 990] | > 8.10
O=C(Oc1ccc(F)cc1)N1CCc2c([nH]c3ccc(Cl)cc23)C1c1ccc(OCCCN2CCSCC2)cc1 (centres unmarked) [Compound 991] | 6.70 to 7.40
